The values below come from PMC10253591, “A Non-Systemic Phosphodiesterase-5 Inhibitor Suppresses Colon Proliferation in Mice” (International Journal of Molecular Sciences, 2023).

In data set [1] the test system is mice. The experiment in a line: Arterial blood pressure by telemetry, interaction with isosorbide mononitrate. The format is in vivo. Particulars: ISMN 300 mg/kg i.p. alone (oral vehicle), baseline around 100 mmHg. As for the experimental part: Male C57BL/6J mice (n = 4) were implanted with a PA-C10 blood pressure transmitter in the right carotid artery (Data Sciences International, St. Paul, MN, USA), and after recovery from surgery, the data was recorded using the DSI PhysioTel system (Data Sciences International, St. Paul, MN, USA). For each experiment, the mice were randomly selected for treatment with ISMN mixed in diH20, and 0.1 mL was injected i.p. for a final dose of 300 mg/kg. […] The experiment was repeated until each treatment had been reproduced in 5 independent biological trials after which mice were euthanized.
The surgical procedures and implantable telemetry approach for measuring blood pressure in mice have been described in detail previously. In brief, all surgical instruments were autoclaved on a stainless-steel tray that was used as the sterile surface during surgery. The mouse is anesthetized in an isoflurane-inducing chamber. Anesthesia used a fitted nose cone connected to an isoflurane system running 2% in a stream of 100% oxygen mixed with room air. The incision area was shaved and prepped with betadine and rinsed with 70% ethanol. Anesthesia was assessed continuously during shaving and prepping for surgery, with appropriate adjustments. An approximately 10 mm incision was made in the ventral neck region over the trachea to expose the […]. […]

The next data set has as its system colon epithelium. Briefly: Cell proliferation in the colon epithelium (Ki67 flow cytometry, PCNA IHC). The format is in vivo. Particulars: mice, 9 mg/kg in drinking water; for Ki67+ cells, median: 8 days, proximal colon epithelium, flow cytometry, control 23%; for reduction of number of PCNA+ cells/crypt: distal colon, IHC. An excerpt: Mice were weighed daily, and after at least 5 days of continuous consumption they were sacrificed, and the colon was dissected and processed for quantitation of proliferation by flow cytometry (proximal region) and by IHC (distal region). For flow cytometry, the epithelium was enriched by isolating crypts as described previously, followed by ethanol fixation and staining with phycoerythrin-conjugated anti-mouse Ki-67 antibodies according to the manufacturer instructions (Biolegend, San Diego, CA, USA). Flow cytometry was carried out using a BD Accuri C6 flow cytometer, and data were analyzed using FCS Express 7 software (De Novo Software, Pasadena, CA, USA). Processing the distal colon tissues for histology and immunohistochemistry was carried out as previously described. Briefly, tissues were fixed with 10% formaldehyde, embedded in paraffin blocks, and sectioned by the Augusta University histology core. The tissues were probed using antibodies to PCNA (1:100; Cell Signaling, Danvers, MA, USA). Visualization of PCNA antibodies was carried out using the ImmunoCruz ABC kit (Santa Cruz Biotechnology, Dallas, TX, USA). At least 10 different regions of the colon containing approximately 8 crypts per region were counted for each mouse.

The nature of data set [2]: LC-MS/MS measurement of compound in plasma and feces after oral gavage. Particulars: mice; for level in feces: feces collected between 2–4 h.
The subject of data set [3] is LS-174T colon cancer cells. The experiment in a line: Cell-based permeability assay: cellular cGMP (ELISA) in linaclotide-treated cells. Particulars: LS-174T cells; for EC50: Homo sapiens, LS174T, 1 µM linaclotide, 4 h, cGMP ELISA, read-out: EC50 for increasing cellular cGMP levels. As for the experimental part: The cell-based permeability assays were performed using LS-174T colon cancer cells obtained from the American Type Culture Collection. Cells were treated with 1 µM linaclotide together with different PDE5i concentrations for 4 h, followed by processing of cell extracts for cellular cGMP measurement using cGMP ELISA kits according to the manufacturer instructions (Cayman Chemical, Ann Arbor, MI, USA). The calculated EC50 values are the concentration of compound required to increase cellular cGMP levels by 50% of maximum based on predictions determined by curve fitting in GraphPad Prism 9 (San Diego, CA, USA). To assess activation of cGMP signaling by immunoblotting, we used LS174T cells with inducible PKG2 expression that were described recently.

The next data set deals with T1, human PDE5a (Homo sapiens, UniProt O76074).
T1 construct: purchased BPS Bioscience
The experiment in a line: In vitro assay for PDE5 inhibitory activity (commercial kit). The format is biochemical. To be noted: mean of n = 3.

The test system of data set [4] is mice. Briefly: Tolerability and plasma level with compound in drinking water for up to 8 days. The format is in vivo.
The nature of another data set: in vivo. To be noted: both, mouse, po.
A short description of data set [5]: Tolerability and plasma level with compound in drinking water for up to 8 days. It is filed as in vivo. To be noted: male, mouse, plasma, oral, 9 mg/kg daily; mice, in drinking water for 8 days.
For data set [6] the following is noted: both, mouse, in vivo, po.
Where [7] appears, read: 9 mg/kg in drinking water, up to 8 days.

As to `O=[N+]([O-])O[C@@H]1CO[C@H]2[C@@H]1OC[C@@H]2O` [ISMN, isosorbide mononitrate], the “arterial blood pressure after drug” value in the data set with mice [1] is listed as 126 mmHg.
As a reminder, the EC50 is the concentration that produces a half-maximal response. By IC50 is commonly meant the concentration that inhibits the measured activity by half. Low values mean greater potency, high ones weaker potency. As for `CCCc1nn(C)c2c(=O)[nH]c(-c3cc(S(=O)(=O)N4CCN(C(=O)CC(=O)O)CC4)ccc3OCC)nc12` [malonyl-sildenafil], in the data set on colon epithelium, the “Ki67+ cells, median” value worked out at 7%. Also, in the data set on colon epithelium, the “reduction of number of PCNA+ cells/crypt” value is reported as “about 30%”. The level in feces in data set [2] (oral 9 mg/kg) is recorded as 90 µg/g; in data set [2] (oral 36 mg/kg), 244 µg/g. For the same molecule, the level in plasma entry in data set [2] (oral, doses up to 36 mg/kg, 1 h after administration) is listed as “did not result in detectable levels”; in the data set with mice [4] (in drinking water for 8 days), “not detected”. For the same molecule, the excretion in feces result in [2] (single oral 9 mg/kg, 8 h after administration) is “continued to be excreted at high levels”. For the same molecule, the “level in plasma at other times of time course” value in [2] (single oral 9 mg/kg, any time other than 1 h during 24 h) is reported as “not detected”. Further, the “plasma peak in time course” value in [2] (single oral 9 mg/kg, at 1 h) was 11 nM. The EC50 in data set [3] was determined as 12.1 µM. For the same molecule, the “fold less potent than parent compound at increasing cGMP levels, based upon EC50” value in data set [3] (versus sildenafil) was found to be 18 fold. The molecule further registered an IC50 against human PDE5a of 0.0065 µM. The “body weight compared to sildenafil or water alone” value in the data set on mice [4] (setting [7]) is “no difference”. Besides, the observed deleterious effects result in the data set on mice [4] (setting [7]) was “no observed deleterious effects”. In the data set with mice [4] (8 days in drinking water, H&E), the “histological analysis of the colon mucosa” value was “no obvious epithelial damage, edema or leukocyte infiltration”.
Regarding `CCCc1nn(C)c2c(=O)[nH]c(-c3cc(S(=O)(=O)N4CCN(C)CC4)ccc3OCC)nc12` [sildenafil, reference compound], in the data set on colon epithelium, the “Ki67+ cells, median” value worked out at 11% and the “reduction of number of PCNA+ cells/crypt” value is “about 30%”. Also, the concentration at 1 h in “in vivo” (9 mg/kg) worked out at 0.25 µM. Moreover, the concentration at 1 h in the data set “in vivo” (36 mg/kg) amounted to 3.5 µM. Besides, in [3], the EC50 came out at 0.67 µM. In addition, the concentration at 8 days in data set [5] stood at 0.0033 µM. In addition, the “time of peak in plasma” value in data set [6] was 1 to 2 h.
